Data taken from patent US7498460B2, “Isophthalic acid derivatives” (Bayer Healthcare AG, priority 2002, dated 2009).

Experiments:
[1] = test system: isolated guinea pig hearts; assay: Langendorff guinea pig heart: perfusion pressure and left ventricular pressure after LTC4
Procedure: 3. […] to Detect the Cardiovascular Effect: Langendorff Guinea Pig Heart
The heart is removed after opening the chest cavity of anaesthetized guinea pigs and is introduced into a conventional Langendorff apparatus. The coronary arteries are subjected to a constant volume (10 ml/min) perfusion, and the perfusion pressure arising thereby is recorded via an appropriate pressure transducer. A decrease in the perfusion pressure in this arrangement corresponds to a relaxation of the coronary arteries. At the same time, the pressure developed by the heart during each contraction (the left ventricular pressure) is measured by a balloon introduced into the left ventricle, and a further pressure transducer. The rate at which the isolated heart beats is found by calculation from the number of contractions per unit time.
To detect the effect of CysLT2 receptor antagonists, the perfusion with the agonist LTC4 (10^−8 M) is started 15 minutes before addition of increasing concentrations of the test substance (10^−8 to 10^−6 M).

human CysLT1 receptor = target: T1, human CysLT1 receptor (Homo sapiens, UniProt Q9Y271); assay: Cellular in vitro test to determine the CysLT1 activity (aequorin luminescence, LTD4 stimulation); assay type: cell-based; conditions: CHO K1 cells with aequorin and human CysLT1 receptor; agonist LTD4 3×10^−9 M
T1 construct: expressed in transfected cells; host or cells: CHO K1 (ATCC) constitutively expressing aequorin
T1 sequence (Q9Y271 1-337): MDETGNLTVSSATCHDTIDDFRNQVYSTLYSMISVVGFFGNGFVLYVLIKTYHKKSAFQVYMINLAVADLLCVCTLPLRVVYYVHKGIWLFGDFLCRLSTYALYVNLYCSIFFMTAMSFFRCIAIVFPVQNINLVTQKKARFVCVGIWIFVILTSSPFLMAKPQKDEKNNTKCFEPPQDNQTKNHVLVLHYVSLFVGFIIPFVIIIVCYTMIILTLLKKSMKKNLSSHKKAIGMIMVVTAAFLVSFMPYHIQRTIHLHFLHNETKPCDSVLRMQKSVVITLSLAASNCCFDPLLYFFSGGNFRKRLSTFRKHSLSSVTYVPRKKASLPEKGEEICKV
Excerpt: 2. Cellular In Vitro Test to Determine the CysLT1 Activity
A recombinant cell line is used to identify antagonists of the human cysteinyl-leukotriene 1 receptor (CysLT1R) and to quantify the activity of the substances described herein. The cell is originally derived from a hamster ovary epithelial cell (Chinese Hamster Ovary, CHO K1, ATCC: American Type Culture Collection, Manassas, Va. 20108, USA). The test cell line constitutively expresses the calcium-sensitive photoprotein aequorin which, after reconstitution with the cofactor coelenterazine, emits light when the cytoplasmic calcium concentration is increased (Rizzuto R, Simpson A W, Brini M, Pozzan T.; Nature 358 (1992) 325-327). The cell is additionally stably transfected with the human CysLT1 receptor (Lynch et al., Nature 399 (1999) 789-793). The resulting CysLT1R test cell responds to stimulation of the recombinant CysLT1 receptor (agonist: leukotriene D4 (LTD4)) with an intracellular release of calcium ions, which can be quantified through the resulting aequorin luminescence with a suitable luminometer (Milligan G, Marshall F, Rees S. Trends in Pharmacological Sciences 17 (1996) 235-237). Preincubation with antagonists of the CysLT1 receptor reduces the calcium release induced by the agonist LTD4 and thus the measured amount of light.
(§1) Test procedure: The cells are plated out two days before the test in culture medium (DMEM/F12 with Glutamax, Gibco Cat.# 61965-026; 10% FCS, Gibco Cat.# 10270-106; 1.4 mM sodium pyruvate, Gibco Cat.# 11360-039; 1.8 mM sodium bicarbonate, Gibco Cat.# 25080-060; 10 mM HEPES, Gibco Cat.# 15290-026; now belongs to Invitrogen GmbH, 76131 Karlsruhe) in 384- (or 1536-)well microtitre plates and kept in a cell incubator (96% humidity, 5% V/V CO2, 37° C.). On the day of the test, the culture medium is replaced by Tyrode solution (in mM: 140 NaCl, 5 KCl, 1 MgCl2, 2 CaCl2, 20 glucose, 20 HEPES) which additionally contains the cofactor coelenterazine (50 μM), and the microtitre plate is then incubated for a further 3-4 hours. 15 minutes after the test substances have been transferred into the wells of the microtitre plate, the resulting light signal is measured after addition of the LTD4 (3×10^−9M) in the luminometer.

human CysLT2 receptor = target: T2, human CysLT2 receptor (Homo sapiens, UniProt Q9NS75); assay: Cellular in vitro test to determine the CysLT2 activity (aequorin luminescence, LTD4 stimulation); assay type: cell-based; conditions: CHO K1 cells with aequorin and human CysLT2 receptor; agonist LTD4 3×10^−8 M
T2 construct: expressed in transfected cells; host or cells: CHO K1 (ATCC) constitutively expressing aequorin
T2 sequence (Q9NS75 1-346): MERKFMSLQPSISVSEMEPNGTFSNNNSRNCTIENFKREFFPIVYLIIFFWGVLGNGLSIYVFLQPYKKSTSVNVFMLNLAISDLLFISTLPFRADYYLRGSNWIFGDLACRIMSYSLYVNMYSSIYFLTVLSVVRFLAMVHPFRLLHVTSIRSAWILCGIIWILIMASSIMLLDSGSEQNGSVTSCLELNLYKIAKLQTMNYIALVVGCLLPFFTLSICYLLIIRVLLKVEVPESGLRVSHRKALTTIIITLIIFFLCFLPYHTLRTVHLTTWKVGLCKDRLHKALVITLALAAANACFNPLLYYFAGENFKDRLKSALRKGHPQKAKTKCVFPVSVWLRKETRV
Excerpt: B. Assessment of the Physiological Activity Abbreviations: DMEM Dulbecco's modified Eagle medium FCS Fetal calf serum HEPES 4-(2-hydroxyethyl)-1-piperazineethanesulphonic acid 1. Cellular In Vitro Test to Determine the CysLT2 Activity
A recombinant cell line is used to identify antagonists of the human cysteinyl-leukotriene 2 receptor (CysLT2R) and to quantify the activity of the substances described herein. The cell is originally derived from a hamster ovary epithelial cell (Chinese Hamster Ovary, CHO K1, ATCC: American Type Culture Collection, Manassas, Va. 20108, USA). The test cell line constitutively expresses the calcium-sensitive photoprotein aequorin which, after reconstitution with the cofactor coelenterazine, emits light when the cytoplasmic calcium concentration is increased (Rizzuto R, Simpson A W, Brini M, Pozzan T.; Nature 358 (1992) 325-327). The cell is additionally stably transfected with the human CysLT2 receptor (Heise et.al., JBC 275 (2000) 30531-30536). The resulting CysLT2R test cell responds to stimulation of the recombinant CysLT2 receptor (agonists: leukotriene D4 (LTD4) and leukotriene C4 (LTC4)) with an intracellular release of calcium ions, which can be quantified through the resulting aequorin luminescence with a suitable luminometer (Milligan G, Marshall F, Rees S, Trends in Pharmacological Sciences 17 (1996) 235-237). Preincubation with antagonists of the CysLT2 receptor reduces the calcium release induced by the agonists LTD4 and LTC4 and thus the measured amount of light.
as §1, with “CaCl2;” for “CaCl2,”, “(3×10^−8 M)” for “(3×10^−9M)”

[2] = LTC4 (10^−8M) + test sub. (10^−6M)
[3] = LTC4 (10^−8M) + test sub. (10^−7M)
[4] = LTC4 (10^−8M) + test sub. (10^−8M)

IC50 (human CysLT1 receptor) [nM] | IC50 (human CysLT2 receptor) [nM] | SMILES | Left ventricular pressure relative to control without LTC4 [1, 2] [%] | Perfusion pressure relative to control without LTC4 [1, 2] [%] | Left ventricular pressure relative to control without LTC4 [1, 3] [%] | Perfusion pressure relative to control without LTC4 [1, 3] [%] | Left ventricular pressure relative to control without LTC4 [1, 4] [%] | Perfusion pressure relative to control without LTC4 [1, 4] [%] | melting point [°C]
2500 | 14 | O=C(O)c1ccc(OCCCc2ccc(OCCCC3CCCCC3)cc2)c(C(=O)N2CCC(C(=O)O)CC2)c1 [Example 31, 1-(5-Carboxy-2-{3-[4-(3-cyclohexylpropoxy)phenyl]propoxy}benzoyl)piperidine-4-carboxylic acid] | 87 | 112 | 81 | 123 | 67 | 128 | 183.4 to 184.5
– | – | O=C(O)c1ccc(OCCCc2ccc(OCc3ccc(-c4ccccc4)cc3)cc2)c(C(=O)N2CCC(C(=O)O)CC2)c1 [Example 13, 1-(2-{3-[4-(1,1′-Biphenyl-4-ylmethoxy)phenyl]propoxy}-5-carboxybenzoyl)-4-piperidinecarboxylic acid] | – | – | – | – | – | – | 193 to 194
– | – | O=C(O)c1ccc(OCCCc2ccc(OCCCCOc3ccccc3)cc2)c(C(=O)NC2CCC(C(=O)O)CC2)c1 (stereo not shown) [Example 16, 3-{[(4-Carboxycyclohexyl)amino]carbonyl}-4-{3-[4-(4-phenoxybutoxy)phenyl]-propoxy}benzoic acid] | – | – | – | – | – | – | 163 to 165
– | – | O=C(O)CC1CCN(C(=O)c2cc(C(=O)O)ccc2OCCCc2ccc(OCCCCOc3ccccc3)cc2)CC1 [Example 18, 3-{[4-(Carboxymethyl)-1-piperidinyl]carbonyl}-4-{3-[4-(4-phenoxybutoxy)phenyl]-propoxy}benzoic acid] | – | – | – | – | – | – | 192
– | – | O=C(O)c1ccc(OCCCc2ccc(OCCCCOc3ccccc3)cc2)c(C(=O)NC2CCCC(C(=O)O)C2)c1 (racemic) [Example 12, 3-{[(3-Carboxycyclohexyl)amino]carbonyl}-4-{3-[4-(4-phenoxybutoxy)phenyl]-propoxy}benzoic acid (racemate A)] | – | – | – | – | – | – | > 210
– | – | O=C(O)c1ccc(OCCCc2ccc(OCCCCOc3ccccc3)cc2)c(C(=O)N2CCC(C(=O)O)CC2)c1 [Example 15, 1-(5-Carboxy-2-{3-[4-(4-phenoxybutoxy)phenyl]propoxy}benzoyl)-4-piperidine-carboxylic acid] | – | – | – | – | – | – | 142 to 143
2000 | 5 | O=C(O)c1ccc(OCCCc2ccc(OCCCC3CCCCC3)cc2)c(C(=O)NC2CCCC(C(=O)O)C2)c1 (stereo not shown) [Example 23, 3-{[(3-Carboxycyclohexyl)amino]carbonyl}-4-{3-[4-(3-cyclohexylpropoxy)phenyl]-propoxy}benzoic acid] | 97 | 111 | 84 | 127 | 72 | 133 | 160
> 10000 | 15 | CC(C)Oc1ccc(COc2ccc(CCCOc3ccc(C(=O)O)cc3C(=O)NC3CCCC(C(=O)O)C3)cc2)cc1 (stereo not shown) [Example 33, 3-{[(3-Carboxycyclohexyl)amino]carbonyl}-4-(3-{4-[(4-isopropoxybenzyl)oxy]-phenyl}propoxy)benzoic acid] | 84 | 108 | 57 | 121 | 44 | 122 | –

SMILES | IC50 (human CysLT1 receptor) [nM] | IC50 (human CysLT2 receptor) [nM] | Left ventricular pressure relative to control without LTC4 [1, 2] [%] | Perfusion pressure relative to control without LTC4 [1, 2] [%] | Left ventricular pressure relative to control without LTC4 [1, 3] [%] | Perfusion pressure relative to control without LTC4 [1, 3] [%] | Left ventricular pressure relative to control without LTC4 [1, 4] [%] | Perfusion pressure relative to control without LTC4 [1, 4] [%] | melting point [°C]
O=C(O)c1ccc(OCCCc2ccc(OCCCCOc3ccccc3)cc2)c(C(=O)NC2CCCC(C(=O)O)C2)c1 (racemic) [Example 11, 3-{[(3-Carboxycyclohexyl)amino]carbonyl}-4-{3-[4-(4-phenoxybutoxy)phenyl]-propoxy}benzoic acid (racemate B)] | > 10000 | 35 | 79 | 108 | 60 | 112 | 44 | 125 | 182 to 183
